From patent US20260097036A1 (Kadmon Corporation, LLC, priority 2022, published 2026)
Several values for one entry are separate records, joined by “and”; a condition that tells them apart may be missing. Equal values may be shown once. Read-outs that look alike come from different tables or passages of the source.

Key:
[1] = cited from earlier work
[2] = Part 2 relative bioavailability and food effect, plasma PK; assay type: in vivo, human; settings: for Tlag / AUC % extrap / Lambda-z / half-life / Tmax / AUC(0-inf) / AUC(0-t) / Cmax / AUC (0-24) / AUC (0-last) / T1/2 / median Tmax: plasma; for peak (Cmax) and total exposure (AUC), liquid formulation vs tablet: both in the fed state, GMR comparison; for food effect on exposure, fed vs fasted: oral liquid formulation
Description: Subjects underwent preliminary screening procedures to determine their eligibility for Part 2 of the study at the screening visit (Day −28 to Day −2 of Part 2). Subjects who took part in Part 1 of the study were permitted to take part in Part 2.
Three different regimens (G, H, and I), were used over the three periods. In Regimen G, belumosudil was administered in Tablet form (reference); and in Regimens H and I, belumosudil was administered in the form of Oral Liquid Formulation.
In Period 1, Day 1: subjects were randomized prior to administration of the first dose of IMP to 1 of 6 treatment sequences (GHI, HIG, IGH, IHG, GIH and HGI) with 3 subjects assigned to each treatment sequence. On Day 1 of each study period (periods 1, 2 and 3), subjects received the regimens in Table 36:
Regimen H was administered to subjects as a flavorless low sucralose liquid formulation in a fasted state, and Regimens G and I were administered to subjects in a fed state. Regimen G was administered with a total of 240 mL of water. For Regimens H and I, immediately after IMP administration, subjects consumed water to a total volume of 240 mL (including the dosing volume).
Subjects received a single dose of IMP in the morning of Day 1 following an overnight fast of a minimum of 10 h (Regimen H, fasted state) or following a standard breakfast (Regimens G and I, fed state). Blood samples were collected at regular intervals for PK analysis. Following administration of Regimen H, subjects completed a written taste/palatability questionnaire individually and privately.
Subjects were resident in the clinical unit for 10 consecutive nights that covered all 3 treatment periods. All subjects remained on site until 72 h post-final dose for safety and PK assessments. There was a minimum washout of 3 days between each IMP administration. To ensure the ongoing wellbeing of the subjects, a follow-up phone call took place 3 to 7 days post-final dose. If a subject reported any AEs after discharge which represented a cause for concern, they were required to attend the clinical unit for a follow-up assessment. This would have been an unscheduled visit.

[3] = particle size distribution, Sympatec Helos wet dispersion; assay type: physicochemical; settings: 40 mg/mL in water, R3 and R5 lens
Description: Samples were assessed using the Sympatec Helos Particle Size Analyzer using the generic method for wet dispersions as outlined below: • R5 Lens and R3 Lens • Sample added until 10-15% Copt achieved • Method run producing 3 replicates (sample stirred and sonicated throughout measurement run)
Samples were assessed using the Sympatec Helos Particle Size Analyzer, with sample added until 10-15% Copt was achieved. Two different lens assemblies were used giving the following ranges for particle size assessment, R3 Lens (0.5-175 μm) and the R5 Lens (4.8-875 μm). Three replicates were performed as part of the measurement run, with the sample stirred and sonicated as part of the method.

[4] = Regimen G: 200 mg Tablet, Fed, single oral dose, healthy male volunteers, median (range)
[5] = Regimen G: 200 mg Tablet, Fed, single oral dose, geometric mean (CV%)
[6] = Regimen H: 200 mg Liquid Formulation, Fasted, single oral dose, healthy male volunteers, median (range)
[7] = Regimen H: 200 mg Liquid Formulation, Fasted, single oral dose, geometric mean (CV%)
[8] = Regimen I: 200 mg Liquid Formulation, Fed, single oral dose, healthy male volunteers, median (range)
[9] = Regimen I: 200 mg Liquid Formulation, Fed, single oral dose, geometric mean (CV%)
[10] = Regimen G: 200 mg Tablet, Fed, single oral dose, geometric mean (CV%), individual values where n <= 2
[11] = Regimen H: 200 mg Liquid Formulation, Fasted, single oral dose, geometric mean (CV%), individual values where n <= 2
[12] = Regimen I: 200 mg Liquid Formulation, Fed, single oral dose, geometric mean (CV%), individual values where n <= 2

For `O=C([O-])c1ccccc1.[Na+]` [Sodium Benzoate], the ADI ([1]; JECFA (1996)) is given as 2-5. The JECFA (1996) has set an ADI of up to 5 mg/kg body- mg/kg body-weight.

With `O=C(O)COc1cccc(-c2nc(Nc3ccc4[nH]ncc4c3)c3ccccc3n2)c1` [KD025m2, 2-(3-(4-(1H-indazol-5-ylamino)quinazolin-2-yl)phenoxy) acetic acid] the Tlag [2, 4] was 1.00 h, the AUC % extrap [2, 5] was 5.607 (49.8%) [n = 8] and the Lambda-z [2, 5] was 0.281 (43.1%) [n = 8] 1/h. The Tlag [2, 6] was 0.00 h, the AUC % extrap [2, 7] was 4.453 (60.7%) [n = 10] and the Lambda-z [2, 7] was 0.277 (87.4%) [n = 10] 1/h. For the same compound, the Tlag [2, 8] was 0.00 h, the AUC % extrap [2, 9] was 5.388 (43.1%) [n = 10] and the Lambda-z [2, 9] was 0.273 (56.5%) [n = 10] 1/h. The “peak (Cmax) and total exposure (AUC), liquid formulation vs tablet” value [2] was “similar”, the half-life ([2]; male, human, oral, 200 mg, tablet reference 200 mg, fed, read-out: geometric mean T1/2 (converted)) was 2.47 h and the Tmax ([2]; male, human, po, 200 mg, Regimen G: 200 mg Tablet, Fed, single oral dose, healthy male volunteers, median (range), read-out: Tmax) was 3 h. It also gave an AUC(0-inf) ([2]; male, human, po, 200 mg, Regimen G: 200 mg Tablet, Fed, single oral dose, geometric mean (CV%)) of 1180 ng·h/mL, a half-life ([2]; male, human, po, 200 mg, Regimen G: 200 mg Tablet, Fed, single oral dose, geometric mean (CV%), individual values where n <= 2, read-out: T1/2 (converted)) of 2.47 h and an AUC(0-t) ([2]; male, human, po, 200 mg, Regimen G: 200 mg Tablet, Fed, single oral dose, geometric mean (CV%), read-out: AUC (0-24)) of 1280 ng·h/mL. It also gave an AUC(0-t) ([2]; male, human, po, 200 mg, Regimen G: 200 mg Tablet, Fed, single oral dose, geometric mean (CV%), read-out: AUC (0-last)) of 1200 ng·h/mL, a Cmax ([2]; male, human, po, 200 mg, Regimen G: 200 mg Tablet, Fed, single oral dose, geometric mean (CV%), read-out: Cmax) of 406 ng/mL and a Tmax ([2]; male, human, po, 200 mg, Regimen H: 200 mg Liquid Formulation, Fasted, single oral dose, healthy male volunteers, median (range), read-out: Tmax) of 1.5 h. It also gave an AUC(0-inf) ([2]; male, human, po, 200 mg, Regimen H: 200 mg Liquid Formulation, Fasted, single oral dose, geometric mean (CV%)) of 1030 ng·h/mL, a half-life ([2]; male, human, po, 200 mg, Regimen H: 200 mg Liquid Formulation, Fasted, single oral dose, geometric mean (CV%), individual values where n <= 2, read-out: T1/2 (converted)) of 2.51 h and an AUC(0-t) ([2]; male, human, po, 200 mg, Regimen H: 200 mg Liquid Formulation, Fasted, single oral dose, geometric mean (CV%), read-out: AUC (0-24)) of 1130 ng·h/mL. It also gave an AUC(0-t) ([2]; male, human, po, 200 mg, Regimen H: 200 mg Liquid Formulation, Fasted, single oral dose, geometric mean (CV%), read-out: AUC (0-last)) of 1080 ng·h/mL, a Cmax ([2]; male, human, po, 200 mg, Regimen H: 200 mg Liquid Formulation, Fasted, single oral dose, geometric mean (CV%), read-out: Cmax) of 372 ng/mL and a Tmax ([2]; male, human, po, 200 mg, Regimen I: 200 mg Liquid Formulation, Fed, single oral dose, healthy male volunteers, median (range), read-out: Tmax) of 2 h. For the same compound, the AUC(0-inf) ([2]; male, human, po, 200 mg, Regimen I: 200 mg Liquid Formulation, Fed, single oral dose, geometric mean (CV%)) was 926 ng·h/mL, the half-life ([2]; male, human, po, 200 mg, Regimen I: 200 mg Liquid Formulation, Fed, single oral dose, geometric mean (CV%), individual values where n <= 2, read-out: T1/2 (converted)) was 2.54 h and the AUC(0-t) ([2]; male, human, po, 200 mg, Regimen I: 200 mg Liquid Formulation, Fed, single oral dose, geometric mean (CV%), read-out: AUC (0-24)) was 1180 ng·h/mL. For the same compound, the AUC(0-t) ([2]; male, human, po, 200 mg, Regimen I: 200 mg Liquid Formulation, Fed, single oral dose, geometric mean (CV%), read-out: AUC (0-last)) was 1120 ng·h/mL, the Cmax ([2]; male, human, po, 200 mg, Regimen I: 200 mg Liquid Formulation, Fed, single oral dose, geometric mean (CV%), read-out: Cmax) was 319 ng/mL and the Tmax ([2]; male, human, po, 200 mg, single oral 200 mg as liquid formulation (fed), read-out: median Tmax) was 2 h. The Tmax ([2]; male, human, po, 200 mg, single oral 200 mg as tablet reference, fed, read-out: median Tmax) was 3 h and the “food effect on exposure, fed vs fasted” value [2] was “No notable changes”.

With `CC(C)NC(=O)COc1cccc(-c2nc(Nc3ccc4[nH]ncc4c3)c3ccccc3n2)c1` [pin-milled API] the “PSD of wet dispersion in sterile water for irrigation” value [3] was “reproducibility between replicates”.

In the case of `NC(=O)COc1cccc(-c2nc(Nc3ccc4[nH]ncc4c3)c3ccccc3n2)c1` [KD025m1], the Tlag [2, 4] is reported as 1.00 h, the Tmax [2, 4] is reported as 2.00 h and the “AUC (0-24)” value [2, 5] is reported as 45.3 (63.9%) [n = 15] ng · h/mL. The “AUC (0-last)” value [2, 5] was 42.7 (50.7%) [n = 15] ng · h/mL, the Cmax [2, 5] was 22.3 ng/mL and the Lambda-z [2, 10] was 0.24 h⁻¹ and 0.38 h⁻¹. The T1/2 [2, 10] was 1.81 h and 2.88 h, the Tlag [2, 6] was 0.00 (0.00-1.00) [n = 17] h and the Tmax [2, 6] was 1.00 (0.500-1.50) [n = 17] h. For the same compound, the “AUC (0-24)” value [2, 7] was 34.9 (104.8%) [n = 12] ng · h/mL, the “AUC (0-last)” value [2, 7] was 30.3 (70.9%) [n = 12] ng · h/mL and the Cmax [2, 7] was 19.0 (41.7%) [n = 17] ng/mL. For the same compound, the Lambda-z [2, 11] was 0.26 h⁻¹ and 0.3 h⁻¹, the T1/2 [2, 11] was 2.28 h and 2.67 h and the Tlag [2, 8] was 0.500 (0.00-1.00) [n = 17] h. The Tmax [2, 8] was 1.50 (0.500-3.00) [n = 17] h, the “AUC (0-24)” value [2, 9] was 49.4 (83.1%) [n = 17] ng · h/mL and the “AUC (0-last)” value [2, 9] was 37.9 (53.2%) [n = 17] ng · h/mL. The Cmax [2, 9] was 19.4 (27.6%) [n = 17] ng/mL, the Lambda-z [2, 12] was 0.326 [n = 1] l/h and the T1/2 [2, 12] was 2.128 [n = 1] h. For the same compound, the “peak (Cmax) and total exposure (AUC), liquid formulation vs tablet” value ([2]; listed as KD025 ml) was “largely similar to that of the tablet reference”, the “food effect on exposure, fed vs fasted” value [2] was “moderate increases in total exposure” and the “median Tmax” value ([2]; single oral 200 mg as liquid formulation (fed)) was 1.5 h. For the same compound, the “median Tmax” value ([2]; single oral 200 mg as tablet reference, fed, listed as KD025 ml) was 2.00 h and 2 h.

For `OC[C@H]1O[C@H](O[C@]2(CCl)O[C@H](CCl)[C@@H](O)[C@@H]2O)[C@H](O)[C@@H](O)[C@H]1Cl` [Sucralose], the ADI ([1]; set in 2000) is listed as “An ADI of up to 15 mg/kg body weight was set in 2000. In”.

In the case of `CC(C)NC(=O)COc1cccc(-c2nc(Nc3ccc4[nH]ncc4c3)c3ccccc3n2)c1` [jet-milled belumosudil], the “PSD of wet dispersion in sterile water for irrigation” value [3] is reported as “poor results with readings that were inconsistent between the measurement runs”.
